Values quoted from earlier work, collected in article PMC4408534 (Journal of nuclear medicine : official publication, Society …, 2014).

What was measured:
[1] = tested on: human SSTR2-transfected cell membranes; conditions: ± SEM, ref [27]
[2] = tested on: rat SSTR2 expressed in AR42J membranes; conditions: ref [28]

Which “binding affinity, human SSTR2” value [1] does the source give for `C[C@@H](O)[C@H](NC(=O)[C@@H]1CSSC[C@H](NC(=O)[C@@H](Cc2ccccc2)NC(=O)CN2CCN(CC(=O)[O-])CCN(CC(=O)[O-])CCN(CC(=O)[O-])CC2)C(=O)N[C@@H](Cc2ccc(O)cc2)C(=O)N[C@H](Cc2c[nH]c3ccccc23)C(=O)N[C@@H](CCCCN)C(=O)N[C@@H]([C@@H](C)O)C(=O)N1)C(=O)O.[177Lu+3]` [177-Lu-Dotatate, Lu-177-Tyr3-octreotate] here?
The value was 1.5 ± 0.4 nM.

And the “binding affinity, rat SSTR2” value [2]?
Its value is 0.21 to 0.23 nM.
